From ChEMBL document CHEMBL5705899 (Biochem J, 2014)
Activity calls are given as the source filed them. No cut-off for these calls is given here.

Assays:
[1] = molecular target: Mitogen-activated protein kinase 15 (Homo sapiens) (UniProt Q8TD08); experiment: Inhibition of human ERK7 at 1 uM using RBER-CHKtide as substrate in presence of 33P-ATP by ProQinase assay
[2] = molecular target: Mitogen-activated protein kinase kinase kinase kinase 3 (Homo sapiens) (UniProt Q8IVH8); experiment: Inhibition of recombinant human MAP4K3 (1 to 873 residues) expressed in baculovirus infected Sf21 cells assessed as remaining activity at 1 uM using MBP as substrate incubated for 30 mins in presence of [gamma-33P]ATP by filter binding method relative to control
[3] = molecular target: Serine/threonine-protein kinase 4 (Homo sapiens) (UniProt Q13043); experiment: Inhibition of human MST1 at 1 uM using RB-CTF as substrate in presence of 33P-ATP by ProQinase assay
[4] = molecular target: Phosphatidylinositol 4,5-bisphosphate 3-kinase catalytic subunit delta isoform (Homo sapiens, UniProt O00329); experiment: Inhibition of PI3Kdelta (unknown origin) using PtdIns(4,5)P2 as substrate preincubated for 20 mins followed by substrate addition and measured after 80 mins by Kinase-Glo assay
[5] = molecular target: Lymphokine-activated killer T-cell-originated protein kinase (Homo sapiens) (UniProt Q96KB5); experiment: Inhibition of human PBK at 1 uM using histon H1 as substrate in presence of 33P-ATP by ProQinase assay
[6] = molecular target: Calcium/calmodulin-dependent protein kinase type 1D (Homo sapiens) (UniProt Q8IU85); experiment: Inhibition of human CAMK1D at 1 uM using RBER-CHKtide as substrate in presence of 33P-ATP by ProQinase assay
[7] = molecular target: Serine/threonine-protein kinase PAK 4 (Homo sapiens) (UniProt O96013); experiment: Inhibition of recombinant human N-terminal GST-tagged PAK4 (2 to 519 residues) expressed in Escherichia coli assessed as remaining activity at 1 uM using RRRLSFAEPG as substrate incubated for 30 mins in presence of [gamma-33P]ATP by filter binding method relative to control
[8] = molecular target: Serine/threonine-protein kinase pim-1 (Homo sapiens) (UniProt P11309); experiment: Inhibition of recombinant human N-terminal His6-tagged PIM1 (2 to 313 residues) expressed in baculovirus infected Sf21 cells assessed as remaining activity at 1 uM using RSRHSSYPAGT as substrate incubated for 30 mins in presence of [gamma-33P]ATP by filter binding method relative to control
[9] = molecular target: Tau-tubulin kinase 2 (Homo sapiens) (UniProt Q6IQ55); experiment: Inhibition of recombinant human TTBK2 (1 to 450 residues) expressed in baculovirus infected Sf21 cells assessed as remaining activity at 1 uM using RRKDLHDDEEDEAMSITA as substrate incubated for 30 mins in presence of [gamma-33P]ATP by filter binding method relative to control
[10] = molecular target: Phosphatidylinositol 4-phosphate 3-kinase C2 domain-containing subunit beta (Homo sapiens, UniProt O00750); experiment: Inhibition of PI3KC2beta (unknown origin) at 1 uM
[11] = molecular target: Serine/threonine-protein kinase MRCK alpha (Homo sapiens) (UniProt Q5VT25); experiment: Inhibition of human CDC42BPA at 1 uM using RB-S6P as substrate in presence of 33P-ATP by ProQinase assay
[12] = molecular target: Tyrosine-protein kinase TXK (Homo sapiens) (UniProt P42681); experiment: Inhibition of human TXK at 1 uM using RBER-CHKtide as substrate in presence of 33P-ATP by ProQinase assay
[13] = molecular target: Casein kinase I isoform epsilon (Homo sapiens) (UniProt P49674); experiment: Inhibition of human CK1epsilon at 1 uM using casein as substrate in presence of 33P-ATP by ProQinase assay
[14] = molecular target: Serine/threonine-protein kinase Chk1 (Homo sapiens) (UniProt O14757); experiment: Inhibition of human CHK1 at 1 uM using RBER-CHKtide as substrate in presence of 33P-ATP by ProQinase assay
[15] = molecular target: TGF-beta receptor type-1 (Homo sapiens) (UniProt P36897); experiment: Inhibition of human TGFBR1 at 1 uM using RBER-CHKtide as substrate in presence of 33P-ATP by ProQinase assay
[16] = molecular target: Platelet-derived growth factor receptor alpha (Homo sapiens) (UniProt P16234); experiment: Inhibition of recombinant human PDGFRalpha (551 to […] residues) expressed in baculovirus infected Sf21 cells assessed as remaining activity at 1 uM using KKKKEEIYFFFG as substrate incubated for 30 mins in presence of [gamma-33P]ATP by filter binding method relative to control
[17] = molecular target: Casein kinase II subunit alpha (Homo sapiens) (UniProt P68400); experiment: Inhibition of human CK2alpha1 at 1 uM using casein as substrate in presence of 33P-ATP by ProQinase assay
[18] = molecular target: Tyrosine-protein kinase Yes (Homo sapiens) (UniProt P07947); experiment: Inhibition of recombinant human N-terminal His6-tagged YES1 (1 to 543 residues) expressed in baculovirus infected Sf21 cells assessed as remaining activity at 1 uM using Poly(Glu,Tyr) as substrate incubated for 30 mins in presence of [gamma-33P]ATP by filter binding method relative to control

CC(C)(O)CNc1ncc(-c2ccnc(Nc3ccnc(Cl)c3)n2)c(CC2CC2)n1
inhibition [1]: inactive | Activity [2]: 117% | inhibition [3]: inactive | IC50 [4]: 1900 nM | inhibition [5]: inactive | inhibition [6]: inactive | Activity [7]: 103% | Activity [8]: 108% | Activity [9]: 88% | inhibition [10]: inactive | inhibition [11]: inactive | inhibition [12]: inactive | inhibition [13]: inactive | inhibition [14]: inactive | inhibition [15]: inactive | Activity [16]: 121% | inhibition [17]: inactive | Activity [18]: 77%
